Results from patent US8546380B2, “Aminodihydrothiazine derivatives” (Shionogi & Co., Ltd., priority 2005, dated 2013).

What follows are compounds tested against recombinant human BACE-1 protein (Homo sapiens (Human), UniProt P56817) (assay: Measurement of Inhibition of β-Secretase Activity). Settings: fluorescence-quenched peptide substrate 18 nM, BACE-1 7.4 nM, 3 h at 30° C., pH5.0; read-out: IC50 value.
Sequence of recombinant human BACE-1 protein (P56817 46-501): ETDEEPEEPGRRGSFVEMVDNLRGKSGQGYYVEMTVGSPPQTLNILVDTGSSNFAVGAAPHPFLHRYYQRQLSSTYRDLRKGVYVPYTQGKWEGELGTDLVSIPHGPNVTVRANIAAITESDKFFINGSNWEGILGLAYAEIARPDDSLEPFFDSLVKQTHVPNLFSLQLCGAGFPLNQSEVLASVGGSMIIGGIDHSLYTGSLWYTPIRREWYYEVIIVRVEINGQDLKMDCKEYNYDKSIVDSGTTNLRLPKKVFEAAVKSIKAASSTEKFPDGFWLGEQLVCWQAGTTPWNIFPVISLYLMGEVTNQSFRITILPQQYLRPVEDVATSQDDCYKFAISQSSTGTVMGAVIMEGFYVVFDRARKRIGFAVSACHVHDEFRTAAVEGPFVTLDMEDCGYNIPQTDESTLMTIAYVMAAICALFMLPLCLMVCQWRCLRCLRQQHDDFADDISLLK
Type: biochemical
Protocol: Zero point five μL of the test compounds (dissolved in N,N′-dimethylsulfoxide) were incubated with 48.5 μL of the fluorescence-quenched peptide substrate solution (Biotin-XSEVNLDAEFRHDSGC-Eu:X=ε-amino-n-capronic acid, Eu=Europium cryptate) and 1 μL of recombinant human BACE-1 protein (R&D systems) for 3 h at 30° C. in the 96 well half-area plate (black color plate, Costar). The substrate peptide was synthesized by reacting with Biotin-XSEVNLDAEFRHDSGC (Peptide Institute) and Cryptate TBPCOOH mono SMP (CIS bio international). […] The enzymatic reaction was performed in sodium acetate buffer (50 mM sodium acetate (pH5.0), 0.008% Triton X-100). After the reaction, a 50 μL of 8.0 μg/mL Streptavidin-XL665 (CIS bio international) dissolved in phosphate buffer (150 mM K2HPO4—KH2PO4 (pH 7.0), 0.008% Triton X-100, 0.8 M KF) was add to each well and incubated for 1 h at 30° C.
CC1(c2cccc(CNC(=O)Nc3ccccc3)c2)CCSC(N)=N1 (stereo not drawn) [Compound 4] gave an IC50 of under 100 µM. Cc1ccc(C(=O)Nc2cccc(C3(C)CCSC(N)=N3)c2)c(C)c1 (stereo not drawn) [Compound 12] was tested, and the IC50 was under 100 µM. Work on CC1(c2cccc(NC(=O)COc3ccc(F)cc3)c2)CCSC(N)=N1 (stereo not drawn) [Compound 17] yielded an IC50 of under 100 µM. CC1(c2cc(NC(=S)c3ccc(Cl)cc3)cc(S(C)(=O)=O)c2)CCSC(N)=N1 (stereo not drawn) [Compound 30] showed an IC50 of under 100 µM. Compound CC1(c2cc(NC(=O)c3ccc(Cl)cc3)ccc2F)CCSC(N)=N1 (stereo not drawn) [Compound 31] has an IC50 of under 100 µM. CC1(c2cccc(NC(=O)c3cc(F)c(Cl)cc3F)c2)CCSC(N)=N1 (stereo not drawn) [Compound 35] gave an IC50 of under 100 µM. With CC1(c2cccc(NC(=S)Nc3ccc(Br)cc3)c2)CCSC(N)=N1 (stereo not drawn) [Compound 43] the IC50 was under 100 µM. Cc1ccc(S(=O)(=O)Nc2cc(C3(C)CCSC(N)=N3)ccc2F)cc1 (stereo not drawn) [Compound 61] gave an IC50 of under 100 µM. Compound COc1ccc(NC(=O)COc2cccc(C3(C)CCSC(N)=N3)c2)cc1 (stereo not drawn) [Compound 67] has an IC50 of under 100 µM. Work on CC1(c2cc(NC(=S)c3ccc(Br)cc3)cc(S(C)(=O)=O)c2)CCSC(N)=N1 (stereo not drawn) [Compound 71] yielded an IC50 of under 100 µM. In the case of COCCn1c(C(=O)Nc2cccc(C3(C)CCSC(N)=N3)c2)cc2ccccc21 (stereo not drawn) [Compound 77], the IC50 is reported as under 100 µM. Cn1c(CNc2cccc(C3(C)CCSC(N)=N3)c2)cc2ccccc21 (stereo not drawn) [Compound 78] was tested, and the IC50 was under 100 µM. CC1(c2cccc(NC(=O)c3ccc(CO)cn3)c2)CCSC(N)=N1 (stereo not drawn) [Compound 80] showed an IC50 of under 100 µM. Work on CC1(c2cc(NC(=O)c3cocn3)ccc2F)CCSC(N)=N1 (stereo not drawn) [Compound 97] yielded an IC50 of under 100 µM. Work on CC1(c2cccc(OCC(=O)Nc3ccc(C(F)(F)F)cc3)c2)CCSC(N)=N1 (stereo not drawn) [Compound 105] yielded an IC50 of under 100 µM. CC1(c2cccc(OCC(=O)Nc3ccc(-n4cnc(Cl)c4Cl)cc3)c2)CCSC(N)=N1 (stereo not drawn) [Compound 106] was tested, and the IC50 was under 100 µM. CC1(c2cccc(NC(=O)Cc3cc(Cl)ccn3)c2)CCSC(N)=N1 (stereo not drawn) [Compound 113] was tested, and the IC50 was under 100 µM. In the case of CCCNc1ccc(C(=O)Nc2cccc(C3(C)CCSC(N)=N3)c2)nc1 (stereo not drawn) [Compound 114], the IC50 is reported as under 100 µM. CC1(c2cc(NC(=O)c3ccc[nH]3)ccc2F)CCSC(N)=N1 (stereo not drawn) [Compound 115] showed an IC50 of under 100 µM. Compound COc1ccc2nc(NC(=O)c3cccc(C4(C)CCSC(N)=N4)c3)sc2c1 (stereo not drawn) [Compound 117] has an IC50 of under 100 µM. CC1(c2cccc(NCC3CCCCC3)c2)CCSC(N)=N1 (stereo not drawn) [Compound 120] was tested, and the IC50 was under 100 µM. Work on CC1(c2cccc(NC(=O)CCNC(=O)c3ccc(Cl)cn3)c2)CCSC(N)=N1 (stereo not drawn) [Compound 134] yielded an IC50 of under 100 µM. Compound CC1(c2cccc(NC(=O)c3ccc(OCc4ccccc4)cc3)c2)CCSC(N)=N1 (stereo not drawn) [Compound 144] has an IC50 of under 100 µM. In the case of COc1ccc(C(=O)Nc2cccc(C3(C)CCSC(N)=N3)c2)cc1[N+](=O)[O-] (stereo not drawn) [Compound 154], the IC50 is reported as under 100 µM. CC(C)Nc1cnc(C(=O)Nc2cccc(C3(C)CCSC(N)=N3)c2)cn1 (stereo not drawn) [Compound 157] gave an IC50 of under 100 µM. With COc1ccc(NC(=O)NCc2cccc(C3(C)CCSC(N)=N3)c2)cc1 (stereo not drawn) [Compound 159] the IC50 was under 100 µM. Cc1cc(C(=O)Nc2cccc(C3(C)CCSC(N)=N3)c2)ccc1Cl (stereo not drawn) [Compound 172] showed an IC50 of under 100 µM. In the case of CC1(c2cccc(NC(=O)c3ccc(OC(F)(F)F)cc3)c2)CCSC(N)=N1 (stereo not drawn) [Compound 175], the IC50 is reported as under 100 µM. In the case of CC1(c2cccc(NC(=O)Nc3ccc(Cl)cc3)c2)CCSC(N)=N1 (stereo not drawn) [Compound 181], the IC50 is reported as under 100 µM. For CC1(c2cccc(NC(=O)c3ccc(Cl)cc3Cl)c2)CCSC(N)=N1 (stereo not drawn) [Compound 182], the IC50 was under 100 µM. Compound COc1ccc(C2(C)CCSC(N)=N2)cc1C(=O)Nc1ccc(Cl)cn1 (stereo not drawn) [Compound 186] has an IC50 of under 100 µM. Compound CC1(c2cccc(C(=O)Nc3ccc(Cl)cn3)c2)CCSC(NC(=N)N)=N1 (stereo not drawn) [Compound 189] has an IC50 of under 100 µM. Work on CC1(c2cccc(OCC(=O)Nc3ccccc3)c2)CCSC(N)=N1 (stereo not drawn) [Compound 200] yielded an IC50 of under 100 µM. Work on CC1(c2cccc(NC(=O)c3ccc(I)cc3)c2)CCSC(N)=N1 (stereo not drawn) [Compound 201] yielded an IC50 of under 100 µM. Work on CC1(c2cccc(NC(=O)c3cccc4c3OCCO4)c2)CCSC(N)=N1 (stereo not drawn) [Compound 207] yielded an IC50 of under 100 µM. Compound CC1(c2cccc(NC(=O)c3ccc([N+](=O)[O-])cc3)c2)CCSC(N)=N1 (stereo not drawn) [Compound 209] has an IC50 of under 100 µM. CCCCCOc1ccc(NC(=O)COc2cccc(C3(C)CCSC(N)=N3)c2)cc1 (stereo not drawn) [Compound 211] was tested, and the IC50 was under 100 µM. Work on COc1cnc(C(=O)Nc2cccc(C3(C)CCSC(N)=N3)c2)c(N(C)C)n1 (stereo not drawn) [Compound 214] yielded an IC50 of under 100 µM. With CC1(c2cccc(NC(=O)c3ccc(F)c(Br)c3)c2)CCSC(N)=N1 (stereo not drawn) [Compound 215] the IC50 was under 100 µM. With CC1(c2cccc(NC(=O)CCNC(=O)c3ccc(F)cc3)c2)CCSC(N)=N1 (stereo not drawn) [Compound 216] the IC50 was under 100 µM. With CC1(c2cccc(NC(=O)c3ccc4ncsc4c3)c2)CCSC(N)=N1 (stereo not drawn) [Compound 228] the IC50 was under 100 µM. Cc1ccc([S+]([O-])Nc2ccc(F)c(C3(C)CCSC(N)=N3)c2)cc1 (stereo not drawn) [Compound 232] showed an IC50 of under 100 µM. For Cc1cccnc1C(=O)Nc1cccc(C2(C)CCSC(N)=N2)c1 (stereo not drawn) [Compound 240], the IC50 was under 100 µM. CC1(c2ccc(F)c(C(=O)Nc3nccs3)c2)CCSC(N)=N1 (stereo not drawn) [Compound 251] showed an IC50 of under 100 µM. Cc1ccc(CNc2cccc(C3(C)CCSC(N)=N3)c2)cc1 (stereo not drawn) [Compound 259] was tested, and the IC50 was under 100 µM. Compound CC1(c2cccc(NC(=O)c3cccc(Br)c3)c2)CCSC(N)=N1 (stereo not drawn) [Compound 273] has an IC50 of under 100 µM. CC1(c2ccc(NC(=O)c3ccc(Br)cc3)cc2)CCSC(N)=N1 (stereo not drawn) [Compound 278] showed an IC50 of under 100 µM. CC1(c2cccc(NC(=O)c3ccc(N)cn3)c2)CCSC(N)=N1 (stereo not drawn) [Compound 279] showed an IC50 of under 100 µM. Work on CC1(c2cccc(CNc3ccccn3)c2)CCSC(N)=N1 (stereo not drawn) [Compound 281] yielded an IC50 of under 100 µM. CC1(c2cccc(NC(=O)c3cccc(Cl)n3)c2)CCSC(N)=N1 (stereo not drawn) [Compound 298] was tested, and the IC50 was under 100 µM. For CC(C)Oc1ccc(C(=O)Nc2cccc(C3(C)CCSC(N)=N3)c2)nc1 (stereo not drawn) [Compound 299], the IC50 was under 100 µM. In the case of COc1ccc(C(=O)Nc2cccc(C3(C)CCSC(N)=N3)c2)cc1 (stereo not drawn) [Compound 300], the IC50 is reported as under 100 µM. For CC1(c2cccc(NC(=O)c3cc4ccccc4o3)c2)CCSC(N)=N1 (stereo not drawn) [Compound 303], the IC50 was under 100 µM. Compound Cc1nocc1C(=O)Nc1cccc(C2(C)CCSC(N)=N2)c1 (stereo not drawn) [Compound 307] has an IC50 of under 100 µM. Work on CC(=O)c1ccc(C(=O)Nc2cccc(C3(C)CCSC(N)=N3)c2)cc1 (stereo not drawn) [Compound 314] yielded an IC50 of under 100 µM. In the case of CC1(c2cccc(NC(=O)c3ccc(NC(=O)c4ccccn4)cn3)c2)CCSC(N)=N1 (stereo not drawn) [Compound 319], the IC50 is reported as under 100 µM. CC1(c2cccc(NC(=O)c3ccc(-n4cccn4)cc3)c2)CCSC(N)=N1 (stereo not drawn) [Compound 321] gave an IC50 of under 100 µM. COc1ccc(NC(=O)COc2cccc(C3(C)CCSC(N)=N3)c2)cc1F (stereo not drawn) [Compound 322] was tested, and the IC50 was under 100 µM. CC1(c2cccc(OCC(=O)Nc3ccc(OC(F)(F)F)cc3)c2)CCSC(N)=N1 (stereo not drawn) [Compound 326] gave an IC50 of under 100 µM. Work on COC(=O)c1ccc(C(=O)Nc2cccc(C3(C)CCSC(N)=N3)c2)cc1 (stereo not drawn) [Compound 328] yielded an IC50 of under 100 µM. In the case of CC1(c2cc(NC(=O)c3ccc(F)cc3)cc(S(C)(=O)=O)c2)CCSC(N)=N1 (stereo not drawn) [Compound 330], the IC50 is reported as under 100 µM. Compound CC1(c2cccc(NC(=O)c3ccco3)c2)CCSC(N)=N1 (stereo not drawn) [Compound 335] has an IC50 of under 100 µM. CC1(c2cccc(CCC(=O)Nc3ccc(Cl)cc3)c2)CCSC(N)=N1 (stereo not drawn) [Compound 341] showed an IC50 of under 100 µM. Work on CC1(c2cc(NC(=O)c3cc4ccccc4[nH]3)ccc2F)CCSC(N)=N1 (stereo not drawn) [Compound 344] yielded an IC50 of under 100 µM. With CC1(c2ccc(F)c(NC(=O)c3ccccc3C(F)(F)F)c2)CCSC(N)=N1 (stereo not drawn) [Compound 345] the IC50 was under 100 µM. In the case of COC(=O)c1cccc(C(=O)Nc2cccc(C3(C)CCSC(N)=N3)c2)c1 (stereo not drawn) [Compound 346], the IC50 is reported as under 100 µM. Cc1cccc(C(=O)Nc2cccc(C3(C)CCSC(N)=N3)c2)n1 (stereo not drawn) [Compound 348] was tested, and the IC50 was under 100 µM. With CC1(c2cccc(NC(=O)c3ccccn3)c2)CCSC(N)=N1 (stereo not drawn) [Compound 352] the IC50 was under 100 µM. With CNc1nc(OC)cnc1C(=O)Nc1cccc(C2(C)CCSC(N)=N2)c1 (stereo not drawn) [Compound 353] the IC50 was under 100 µM. Work on CC1(c2cccc(NCc3ccccc3)c2)CCSC(N)=N1 (stereo not drawn) [Compound 357] yielded an IC50 of under 100 µM. With Cn1nc(C(=O)Nc2cccc(C3(C)CCSC(N)=N3)c2)cc1CO (stereo not drawn) [Compound 358] the IC50 was under 100 µM. For CC(=O)NCc1cccc(C2(C)CCSC(N)=N2)c1 (stereo not drawn) [Compound 360], the IC50 was under 100 µM. CC1(c2cccc(NC(=O)C(=O)Nc3ccc(Cl)cc3)c2)CCSC(N)=N1 (stereo not drawn) [Compound 361] was tested, and the IC50 was under 100 µM. For CC1(c2ccc(C(=O)NCc3cccc(Cl)c3)cc2)CCSC(N)=N1 (stereo not drawn) [Compound 363], the IC50 was under 100 µM. In the case of CC1(c2cccc(NC(=O)c3ccc(Cl)c(Cl)c3)c2)CCSC(N)=N1 (stereo not drawn) [Compound 369], the IC50 is reported as under 100 µM.

Same assay, conditions: recombinant human BACE-1 protein, 3 h at 30° C., pH5.0; read-out: IC50 value
C[C@@H](NC(=O)c1ccc(C2(C)CCSC(N)=N2)s1)c1ccccc1 (stereo partly drawn) [Compound 52] was tested, and the IC50 was 10 µM. CC1(c2cc(Cl)cc(NC(=O)c3nc4ccccc4s3)c2)CCSC(N)=N1 (stereo not drawn) [Compound 96] gave an IC50 of 0.163 µM. In the case of CC1(c2cc(NC(=O)c3ccco3)cc(C(F)(F)F)c2)CCSC(N)=N1 (stereo not drawn) [Compound 163], the IC50 is reported as 2.28 µM. Compound COCc1cc(NC(=O)c2ccco2)cc(C2(C)CCSC(N)=N2)c1 (stereo not drawn) [Compound 176] has an IC50 of 1.48 µM. CC1(c2cccc(OCC(=O)Nc3ccc(Cl)cc3)c2)CCSC(N)=N1 (stereo not drawn) [Compound 246] showed an IC50 of 2.9 µM. CC1(c2cccc(OCC(=O)Nc3cccc(O)c3)c2)CCSC(N)=N1 (stereo not drawn) [Compound 269] gave an IC50 of 7 µM.
